Measured values from paper PMC3849035 (MedChemComm, 2011).

Key:
several tumor cell lines = experiment: Cytotoxic activity against tumor cell lines; format: cell-based
HeLa cells = details: microscopically visible alteration of cell morphology
Vero cells = details: microscopically visible alteration of cell morphology
HCMV and VZV = experiment: organism not typed; format: cell-based; details: read-out: EC50's against HCMV and VZV
HEL, HeLa, Vero, MDCK = details: four different cell lines (HEL, HeLa, Vero, MDCK)
Parainfluenza-3 virus = experiment: Inhibition of virus-induced cytopathicity, parainfluenza-3 virus in Vero cells; format: cell-based
HEL cells = details: microscopically visible alteration of cell morphology
MDCK cells = details: microscopically visible alteration of cell morphology
VZV (OKA & 07/1) = experiment: VZV plaque formation assay in HEL cells; format: cell-based, varicella-zoster virus; details: Human alphaherpesvirus 3, HEL, 120 h
Reovirus-1 = experiment: Inhibition of virus-induced cytopathicity, Reovirus-1 in Vero cells; format: cell-based
VSV = experiment: microbe, parasite or virus in culture; format: cell-based; details: Vesicular stomatitis virus, HeLa
RSV = experiment: Inhibition of virus-induced cytopathicity, RSV in HeLa cells; format: cell-based; details: human respiratory syncytial virus

SMILES | cytotoxic activity against several tumor cell lines (several tumor cell lines) | MCC (minimal cytotoxic concentration) (HeLa cells) | MCC (minimal cytotoxic concentration) (Vero cells) | EC50 (HCMV and VZV) | global cytotoxicity (HEL, HeLa, Vero, MDCK) | EC50 (Parainfluenza-3 virus) | MCC (minimal cytotoxic concentration) (HEL cells) | MCC (minimal cytotoxic concentration) (MDCK cells) | EC50 (VZV (OKA & 07/1)) | EC50 (Reovirus-1) | EC50 (VSV) | EC50 (RSV)
O=c1[nH]c(=O)n(C2C=CC(O)C2)cc1-c1cccs1 (stereo not shown) [1a, 1-[4′-Hydroxy-2′-cyclopenten-1′-yl]-5-(thiophene-2-yl)-uracil] | significant cytotoxic activity | 20 µM | 20 µM | 1.6 to 2 µM | 4 to 20 µM | > 4 µM | ≥4 µM | 4 µM | 1.6 to 1.7 µM | > 4 µM |  | 
O=c1[nH]c(=O)n(C2C=CC(O)C2)cc1-c1ccco1 (stereo not shown) [1b, 1-[4′-Hydroxy-2′-cyclopenten-1′-yl]-5-(furan-2-yl)-uracil] |  | >100 µM | >100 µM |  |  | > 100 µM | >100 µM |  |  |  |  | 
O=c1[nH]c(=O)n(C2C=CC(O)C2)cc1-c1cncs1 (stereo not shown) [1c, 1-[4′-Hydroxy-2′-cyclopenten-1′-yl]-5-(thiazol-5-yl)-uracil] |  | >100 µM | >100 µM |  |  | > 100 µM | ≥100 µM | 100 µM | 47 to 56 µM | > 100 µM |  | 
NC(=O)c1ncn([C@@H]2O[C@H](CO)[C@@H](O)[C@H]2O)n1 [Ribavirin, reference compound] |  |  |  |  |  | 85 µM |  |  |  | > 250 µM | 29 µM | 10 µM
